Peptide text beside a SMILES is read from it.
Assays:
Format in all cases: cell-based
TAS2R44 [1] = molecular target: T1, TAS2R44 (Homo sapiens, UniProt P59538, L162M); assay: Fluo-4 calcium assay, activation of TAS2R44 by agonists; settings: for EC50: HEK293T cells stably expressing Gα16-gustducin44 and TAS2R44, nonlinear regression, read-out: calculated EC50 value for TAS2R44; for calcium signaling upon addition: cells stably expressing human TAS2R44
T1 construct: The full length gene of human TAS2R44 was amplified by polymerase chain reaction (PCR) using gene-specific primers that span the entire coding region; RSS tag (first 45 amino acids of rat somatostatin receptor subtype 3, plus EcoRI site) (N); expressed in transfected cells; host or cells: HEK293T/Galpha16-gustducin 44 cells, stably transfected with pcDNA3.1Zeo-TAS2R44
T1 sequence (P59538 with tags, fused parts or gaps L162M): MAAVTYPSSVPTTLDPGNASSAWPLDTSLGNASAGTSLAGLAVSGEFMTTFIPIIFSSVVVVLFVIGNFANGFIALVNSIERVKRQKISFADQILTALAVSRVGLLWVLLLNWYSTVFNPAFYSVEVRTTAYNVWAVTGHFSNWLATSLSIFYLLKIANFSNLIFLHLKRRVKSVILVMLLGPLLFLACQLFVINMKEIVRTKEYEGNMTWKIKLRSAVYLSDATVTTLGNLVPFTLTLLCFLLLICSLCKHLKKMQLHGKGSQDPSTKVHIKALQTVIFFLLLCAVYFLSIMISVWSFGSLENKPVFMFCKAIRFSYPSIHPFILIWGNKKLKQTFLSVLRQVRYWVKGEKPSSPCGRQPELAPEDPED
Method: Fluo-4AM (Invitrogen, Carlsbad, Calif., US) is a fluorescent indicator of intracellular calcium dynamics (change in concentration) and allows monitoring changes in the calcium concentration, particularly an increase in response to receptor activation occurring after agonist exposure.
At day 0, the HEK293T cell line expressing Gα16-gustducin44 and a TAS2R bitter taste receptor formed as described in examples 2b or 2c was seeded in antibiotic-free growth medium (standard DMEM with 10% (v/v) heat-inactivated fetal bovine serum, 2 mM L-glutamine[…]) into black wall/clear bottom 96-well plates, coated with poly(ethylenimine) (0.005% v/v) at a concentration of 15,000 cells per well and incubated for 48 hours in humidified atmosphere (37° C., 5% CO2).
At the time of the assay, the growth medium was discarded and the cells were in humidified atmosphere (37° C., 5% CO2) for 1 hour with 50 μl of loading buffer consisting of 1.5 μM Fluo-4 AM and […] probenicid (Sigma-Aldrich, St. Louis, Mo., US) in DMEM.
Afterwards, the 96-well plate was washed 5 times with 100 μl of assay buffer (130 mM NaCl, 5 mM KCl, 10 mM HEPES, 2 mM CaCl2, and 5 mM dextrose, pH 7.4) per well, using an automated plate washer (BioTek). The plate was further incubated for 30 minutes at room temperature in the dark to allow for complete de-esterification of the Fluo-4. Afterwards the plate was washed 5 times with 100 μl of assay buffer per well, and reconstituted with 100 μl of assay buffer per well.
For assay reading, the plate was placed in a Fluorometric Imaging Plate Reader (FLIPR) (FLIPR-TETRA™, Molecular Devices, Sunnyvale, Calif., US), and receptor activation was initiated by addition of 100 μl of a twofold concentrated agonist stock solution (to give the desired agonist end concentration when added to the 100 microliter assay buffer volume), which was prepared in assay buffer.
Fluorescence was continuously monitored for 20 seconds to give a signal baseline (averaged to give F0) prior to agonist addition and for 120 seconds after agonist addition. The change in signal divided by F0 gives ΔF/F0 indicated in the table, with ΔF being the maximum signal occurring within the 120 seconds minus the minimum signal (occurring within the 120 seconds after agonist addition.
All data was collected from at least two independent experiments each carried out in triplicate.
A concentration-response analysis was performed and EC50 values were calculated by nonlinear regression using the function f(x)=(a−d)/(1+(x/C)^nh)+d; with a=minimum signal, d=maximum signal, nh=hill coefficient, C=EC50. , and x=agonist concentration. EC50 is the molar concentration of an agonist which produces 50% of the maximum possible effective response for that agonist.
(§1) The obtained calcium signals were corrected for the response of cells expressing only the G Proteinα subunit (Gα16-gustducin44) and normalized to the fluorescence of cells prior to the stimulus using ΔF/F0 (Fmax−Fmin/F0).
To confirm that the cell line formed in example 2c stably expresses the bitter taste receptor TAS2R44, a concentration-response curve for saccharin, a known agonist of TAS2R44, was generated. […] The standard deviation (+/−STD) is also indicated.
The intracellular calcium response following addition of steviol glycosides (stevioside, rebaudioside A) was determined in HEK293T cell line stably expressing Gα16-gustducin44 and TAS2R44 formed as described in example 2a.

TAS2R44 [2] = molecular target: T1, TAS2R44; assay: Fluo-4 calcium assay, antagonists of the response of TAS2R44 to steviol glycosides; settings: without bitter blocker
Method: All cells were HEK293T cells stably expressing Gα16-gustducin44, or expressing Gα16-gustducin44 and TAS2R44.
The method was carried out as described in example 3 subject to the following modifications:
The samples were tested with and without candidate bitter blocker and the signals were compared. The candidate bitter blocker was dissolved in dimethylsulfoxide (DMSO), and a negative control with equivalent DMSO concentration (0.02%) was performed accordingly to exclude a potential inhibitory effect of the solvent. Furthermore, a control with the relevant steviol glycoside and DMSO (0.02%) was performed accordingly (see table in example 5).
All data was calculated as ΔF/F0 and the standard deviation (STD) is indicated in each table, see results for the identified bitter blocker 4-(2,2,3-trimethyl-cyclopentyl)-butanoic acid below.

[3] = test system: HEK293T Gα16gustducin44 cells (that do not express TAS2R44); assay: Fluo-4 calcium assay, negative control cells without TAS2R44; settings: for change in signal in the negative control: cells expressing only Gα16-gustducin44
Excerpt: as §1
As a negative control to determine unspecific signals, each of the applied concentrations of each F(I) steviol glycoside was applied to cells expressing only Gα16gustducin44.

Compound: COC(=O)[C@H](Cc1ccccc1)NC(=O)[C@@H](N)CC(=O)O [aspartame] (H-Asp-Phe-OMe)
- agonist for TAS2R44 (TAS2R44 [1]; sweeteners with a known bitter off-note): not to be agonists

Compound: C=C1C[C@@]23CC[C@H]4[C@@](C)(CCC[C@@]4(C)C(=O)O[C@@H]4O[C@H](CO)[C@@H](O)[C@H](O)[C@H]4O)[C@@H]2CC[C@]1(O[C@@H]1O[C@H](CO)[C@@H](O)[C@H](O[C@@H]2O[C@H](CO)[C@@H](O)[C@H](O)[C@H]2O)[C@H]1O[C@@H]1O[C@H](CO)[C@@H](O)[C@H](O)[C@H]1O)C3 [rebaudioside A]
- rebaudioside positive control average ΔF/F0 (TAS2R44 [2]; 0.7 mM rebaudioside A (EC50) alone): 0.4625
- EC50 (TAS2R44 [1]): 700 µM
- calcium signaling upon addition (TAS2R44 [1]): significant increase
- TAS2R44 ΔF/F0 (TAS2R44 [1]; rebaudioside A 0.004 mM): 0.07687
- TAS2R44 ΔF/F0 (TAS2R44 [1]; rebaudioside A 0.008 mM): 0.07938
- TAS2R44 ΔF/F0 (TAS2R44 [1]; rebaudioside A 0.016 mM): 0.0975
- TAS2R44 ΔF/F0 (TAS2R44 [1]; rebaudioside A 0.031 mM): 0.1681
- TAS2R44 ΔF/F0 (TAS2R44 [1]; rebaudioside A 0.063 mM): 0.1619
- TAS2R44 ΔF/F0 (TAS2R44 [1]; rebaudioside A 0.125 mM): 0.32
- TAS2R44 ΔF/F0 (TAS2R44 [1]; rebaudioside A 0.625 mM): 0.7025
- TAS2R44 ΔF/F0 (TAS2R44 [1]; rebaudioside A 2.500 mM): 0.7819
- TAS2R44 ΔF/F0 (TAS2R44 [1]; rebaudioside A 5.000 mM): 0.6262
- change in signal in the negative control [3]: No significant change
- Neg. Control ΔF/F0 ([3]; rebaudioside A 0.004 mM): 0.061
- Neg. Control ΔF/F0 ([3]; rebaudioside A 0.008 mM): 0.0635
- Neg. Control ΔF/F0 ([3]; rebaudioside A 0.016 mM): 0.054
- Neg. Control ΔF/F0 ([3]; rebaudioside A 0.031 mM): 0.063
- Neg. Control ΔF/F0 ([3]; rebaudioside A 0.063 mM): 0.0685
- Neg. Control ΔF/F0 ([3]; rebaudioside A 0.125 mM): 0.087
- Neg. Control ΔF/F0 ([3]; rebaudioside A 0.625 mM): 0.1115
- Neg. Control ΔF/F0 ([3]; rebaudioside A 2.500 mM): 0.153
- Neg. Control ΔF/F0 ([3]; rebaudioside A 5.000 mM): 0.208

Compound: O=C1NS(=O)(=O)c2ccccc21 [saccharin]
- TAS2R44 ΔF/F0 (TAS2R44 [1]; saccharin 0.0391 mM): 0.024
- TAS2R44 ΔF/F0 (TAS2R44 [1]; saccharin 0.0781 mM): 0.075
- TAS2R44 ΔF/F0 (TAS2R44 [1]; saccharin 0.1563 mM): 0.181
- TAS2R44 ΔF/F0 (TAS2R44 [1]; saccharin 0.3125 mM): 0.388
- TAS2R44 ΔF/F0 (TAS2R44 [1]; saccharin 0.6250 mM): 0.668
- TAS2R44 ΔF/F0 (TAS2R44 [1]; saccharin 1.2500 mM): 0.947
- TAS2R44 ΔF/F0 (TAS2R44 [1]; saccharin 2.5000 mM): 1.150
- TAS2R44 ΔF/F0 (TAS2R44 [1]; saccharin 5.0000 mM): 1.258
- TAS2R44 ΔF/F0 (TAS2R44 [1]; saccharin 10.0000 mM): 1.354
- change in signal in the negative control [3]: did not show any significant change in signal
- Neg. Control ΔF/F0 ([3]; saccharin 10.0000 mM): 0.020

Compound: C=C1C[C@@]23CC[C@H]4[C@@](C)(CCC[C@@]4(C)C(=O)O[C@@H]4O[C@H](CO)[C@@H](O)[C@H](O)[C@H]4O)[C@@H]2CC[C@]1(O[C@@H]1O[C@H](CO)[C@@H](O)[C@H](O)[C@H]1O[C@@H]1O[C@H](CO)[C@@H](O)[C@H](O)[C@H]1O)C3 [stevioside]
- stevioside positive control average ΔF/F0 (TAS2R44 [2]; 2.2 mM stevioside (EC50) alone): 0.733
- EC50 (TAS2R44 [1]): 2200 µM
- calcium signaling upon addition (TAS2R44 [1]): significant increase
- TAS2R44 ΔF/F0 (TAS2R44 [1]; stevioside 0.004 mM): 0.082
- TAS2R44 ΔF/F0 (TAS2R44 [1]; stevioside 0.008 mM): 0.079
- TAS2R44 ΔF/F0 (TAS2R44 [1]; stevioside 0.016 mM): 0.096
- TAS2R44 ΔF/F0 (TAS2R44 [1]; stevioside 0.031 mM): 0.112
- TAS2R44 ΔF/F0 (TAS2R44 [1]; stevioside 0.063 mM): 0.136
- TAS2R44 ΔF/F0 (TAS2R44 [1]; stevioside 0.125 mM): 0.230
- TAS2R44 ΔF/F0 (TAS2R44 [1]; stevioside 0.625 mM): 0.451
- TAS2R44 ΔF/F0 (TAS2R44 [1]; stevioside 2.500 mM): 0.677
- TAS2R44 ΔF/F0 (TAS2R44 [1]; stevioside 5.000 mM): 1.155
- change in signal in the negative control [3]: No significant change
- Neg. Control ΔF/F0 ([3]; stevioside 0.004 mM): 0.061
- Neg. Control ΔF/F0 ([3]; stevioside 0.008 mM): 0.059
- Neg. Control ΔF/F0 ([3]; stevioside 0.016 mM): 0.059
- Neg. Control ΔF/F0 ([3]; stevioside 0.031 mM): 0.074
- Neg. Control ΔF/F0 ([3]; stevioside 0.063 mM): 0.065
- Neg. Control ΔF/F0 ([3]; stevioside 0.125 mM): 0.063
- Neg. Control ΔF/F0 ([3]; stevioside 0.625 mM): 0.062
- Neg. Control ΔF/F0 ([3]; stevioside 2.500 mM): 0.010
- Neg. Control ΔF/F0 ([3]; stevioside 5.000 mM): 0.435

— patent US8546085B2, “Methods of identifying modulators of the bitter taste receptor TAS2R44” (Givaudan SA, priority 2008, dated 2013)
